Measured values as given in the kinase profiling compilation of Christmann-Franck et al. (2016).

How the values were obtained:
Experiment in all cases: radiometric filter-binding kinase assay
[1] = target: PHKG1 (human) (UniProt Q16816); details: compound 10.0 µM
[2] = target: RPS6KA3 KD1 KD2 (human) (UniProt P51812)
[3] = target: SYK (human) (UniProt P43405); details: compound 10.0 µM

Sequence of RPS6KA3 KD1 KD2 (human) (P51812 whole entry, looked up): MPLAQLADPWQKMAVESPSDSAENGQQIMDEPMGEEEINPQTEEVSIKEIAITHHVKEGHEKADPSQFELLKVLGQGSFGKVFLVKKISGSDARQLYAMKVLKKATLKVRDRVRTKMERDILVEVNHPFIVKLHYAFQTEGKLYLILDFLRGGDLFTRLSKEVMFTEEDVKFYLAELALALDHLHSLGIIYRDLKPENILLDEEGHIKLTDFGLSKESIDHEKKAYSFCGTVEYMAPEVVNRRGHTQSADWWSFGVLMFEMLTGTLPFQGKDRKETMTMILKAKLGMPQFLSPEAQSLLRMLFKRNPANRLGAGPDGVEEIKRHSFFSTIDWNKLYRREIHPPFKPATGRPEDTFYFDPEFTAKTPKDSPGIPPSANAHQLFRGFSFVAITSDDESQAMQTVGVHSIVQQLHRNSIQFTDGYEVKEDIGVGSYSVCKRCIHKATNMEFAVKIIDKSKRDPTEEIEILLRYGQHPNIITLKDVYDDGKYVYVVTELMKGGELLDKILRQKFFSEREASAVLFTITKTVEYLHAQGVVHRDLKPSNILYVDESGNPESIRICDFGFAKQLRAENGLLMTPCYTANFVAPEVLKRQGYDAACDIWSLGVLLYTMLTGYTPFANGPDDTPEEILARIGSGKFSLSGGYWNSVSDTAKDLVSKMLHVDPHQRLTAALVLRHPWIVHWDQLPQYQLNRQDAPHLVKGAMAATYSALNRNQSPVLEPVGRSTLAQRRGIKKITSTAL
Sequence of PHKG1 (human) (Q16816 whole entry, looked up): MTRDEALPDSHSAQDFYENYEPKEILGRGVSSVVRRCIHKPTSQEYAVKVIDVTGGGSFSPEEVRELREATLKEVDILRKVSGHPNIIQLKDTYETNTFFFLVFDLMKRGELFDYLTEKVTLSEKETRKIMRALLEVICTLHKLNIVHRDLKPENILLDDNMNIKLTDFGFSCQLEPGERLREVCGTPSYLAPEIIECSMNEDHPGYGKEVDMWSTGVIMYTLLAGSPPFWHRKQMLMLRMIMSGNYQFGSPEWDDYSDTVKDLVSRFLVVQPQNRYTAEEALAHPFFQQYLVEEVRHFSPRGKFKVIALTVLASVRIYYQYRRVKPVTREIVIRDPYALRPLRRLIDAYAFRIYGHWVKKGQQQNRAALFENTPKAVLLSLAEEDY

SMILES: Cc1nc(N)sc1-c1csc(Nc2cccnc2)n1
- residual activity [1]: 54%
- residual activity ([2]; compound 10.0 µM): 50%
- residual activity ([2]; compound 100.0 µM): 10%
- residual activity [3]: 100%
